# Columns and labels:
# ALP activity in MC3T3-E1 = experiment: Measurement of ALP activity in MC3T3-E1; format: cell-based, mouse; conditions: 1 μM (positive control, printed in the 10 μM column), MC3T3-E1
# Description: ALP activity was assessed using Quantichrom ALP Assay Kit (Bioassay Systems, Hayward, Calif., USA) according to manufacturer's instructions.
# Briefly, 3×10^3 MC3T3-E1 cells were dispensed in a 96-well plate together with […] of complete α-MEM containing ascorbic acid (50 μg/mL) and 10 mM β-glycerophosphate per well. Here, osmundacetone (10 μM and 50 μM) was added or not added, and the medium was exchanged every 3-4 days.
# On day 14 of the incubation, the colorimetric change due to ALP activity in the cell fraction was measured using a spectrophotometer plate reader (Molecular Devices, Sunnyvale, Calif., USA) at 405 nm (Kim et al., 2016). The % activation of ALP activity was shown by comparing ALP activity of cells treated with an experimental compound and ALP activity of the non-treated control cells.
# [1] = system: osteoclasts differentiated from mouse bone marrow cells; experiment: TRAP assay, osteoclast proliferation and differentiation inhibitory activity; format: cell-based
# Description: Bone marrow cells were collected from the femur and shin bones of 5-8 week old male C57BL/6 mice. Muscles were removed from the bones, and stored in cold phosphate buffered saline (PBS; # CAP08-050, GenDEPOT, Katy, Tex., USA).
# Both ends of each bone were cut, and the bone marrow was flushed with a flushing medium (serum-free α-MEM, 2 mM ethylenediaminetetraacetic acid) kept cool, using a 25 G needle.
# Bone marrow cells were collected by centrifugation at 3,000 rpm for 3 min using Labogene 1248R (Labogene, Lynge, Denmark), and then resuspended in a wash medium. Thereafter, 8 mL of the collected bone marrow cells were overlaid on 6 mL of a lymphocyte isolation medium (LSM; #50494, MP Biomedicals, Santa Ana, Calif., USA), followed by centrifugation at 1,600 rpm for 20 minutes, thereby isolating mononuclear cells.
# The mononuclear cell bands were collected from the media interface, and incubated using complete α-MEM (containing 10% fatal bovine serum (FBS; Capricorn Scientific, Ebsdorfergrund, Germany) and 1% (v/v) antibiotic (including 100 U/mL penicillin G and […] streptomycin)) in the conditions of 37° C. and 5% CO2 while the medium was exchanged every three days.
# In order to promote the differentiation of osteoclasts, 1×10^5 cells were incubated in 0.5 mL of the medium per well in a 48-well plate, in the presence of osteoclast differentiation factors, M-CSF (60 ng/mL) and RANKL (150 ng/mL), purchased from PeproTec (Seoul, Korea). As known, macrophages/monocytes derived from one bone marrow differentiated into mature multinucleated osteoclasts after 6 days (Gurt et al., 2015).
# The tibia and femur of 6-8 week old male C57BL/6 mice were aseptically resected, and bone marrow cells were aseptically collected using a syringe (21 G, Korea Green Cross). The bone marrow cells were floated in 500 μL of α-MEM medium (Gibco BRL Co.) containing sodium bicarbonate (2.0 g/L), streptomycin (100 mg/L), and penicillin ([…]), dispensed in a 48-well plate, and assayed in triplicate. Mononuclear cells as precursor cells of osteoclasts were treated with RANKL and M-CSF as differentiation promoting factors, and thus differentiated into osteoclasts within 5-7 days.
# 2-1) Sample preparation: The hot-water extract, EA extract, or fraction of Osmunda japonica were prepared by the same methods as in section 1 of <Example 1>. The EA-2 extract was dissolved in a minimum amount of DMSO, and then diluted with water to 70% of the original volume of the hot-water extract assuming that the yield of EA-2 extraction was approximately 70%. 2-2) Sample administration: The sample was continuously administered to a medium at 1:20 (v/v; 25 μL of the sample per 500 μL of the medium) from day 1 of incubation of bone marrow cells, while the medium was exchanged every 2-3 days. 2-3) Measurement of osteoclast differentiation Osteoclasts were defined by TRAP-positive multinucleated cells stained with TRAP. As for TRAP stain solution, 5 mg of naphthol AS-MS phosphate (Sigma N-4875) as a base and 25 mg of Fast Red Violet LB salt as a color developing reagent were dissolved in about 0.5 mL of N,N-dimethylformamide, and then mixed with 0.1N NaHCO3 buffer solution (50 mL) containing 50 mM tartaric acid. The reaction reagent was stored in a refrigerator before use.
# After bone marrow cells were incubated in a medium containing differentiation promoting factors for 7 days, the medium was removed, and the cells were washed with PBS, and then immobilized with PBS containing 10% formalin for 2-5 minutes. Thereafter, the cells were immobilized with a 1:1 mixture solution of ethanol and acetone, followed by drying. The immobilized cells were treated with the TRAP stain solution for 15 minutes, and washed with PBS, and then the degree of cell staining was observed by a microscope.
# In the microscope field of view, cells having two or more nuclei in the TRAP-positive cells were determined to be osteoclasts, and the number of cells was measured. […]
Compound,% Activation of ALP activity (ALP activity in MC3T3-E1) [%],"formation of giant osteoclasts, number compared with the positive control group ([1]; 1 μM)","IC50 ([1]; Mus musculus, Osteoclast, tested at 1, 4, 7 and 10 μM, TRAP-positive multinucleated cells) [µM]"
Parathyroid hormone-related peptide [reference compound],138 ± 19,,
"NCCCC(O)(P(=O)(O)O)P(=O)(O)O [Fosamax, alendronate, reference compound]",,smaller compared with the positive control group,≤ 4
